Laboratory results from ChEMBL document CHEMBL1949576, “Praziquantel derivatives exhibit activity against both juvenile and adult Schistosoma japonicum” (2012).

Experiments:
Assay type in all cases: functional
[1] = test system: Schistosoma japonicum; experiment: Antischistosomal activity against juvenile Schistosoma japonicum assessed as worm survival at 5 uM after 72 hrs relative to control
[2] = test system: Schistosoma japonicum; experiment: Antischistosomal activity against juvenile Schistosoma japonicum assessed as worm survival at 15 uM after 72 hrs relative to control
[3] = test system: Schistosoma japonicum; experiment: Antischistosomal activity against adult Schistosoma japonicum assessed as worm survival at 25 uM after 72 hrs relative to control
[4] = test system: Schistosoma japonicum; experiment: Antischistosomal activity against adult Schistosoma japonicum infected in mouse assessed as total worm reduction at 200 mg/kg, po administered 21 days after infection relative to control; design: scale not given: the % may be the effect or the level left
[5] = test system: Schistosoma japonicum; experiment: Antischistosomal activity against adult Schistosoma japonicum assessed as worm survival at 25 uM after 48 hrs relative to control
[6] = test system: Schistosoma japonicum; experiment: Antischistosomal activity against adult Schistosoma japonicum assessed as worm survival at 5 uM after 24 hrs relative to control
[7] = test system: Schistosoma japonicum; experiment: Antischistosomal activity against juvenile Schistosoma japonicum assessed as worm survival at 50 uM after 24 hrs relative to control
[8] = test system: Schistosoma japonicum; experiment: Antischistosomal activity against juvenile Schistosoma japonicum infected in mouse assessed as total worm reduction at 200 mg/kg, po administered 14 days after infection relative to control; design: scale not given: the % may be the effect or the level left
[9] = test system: Schistosoma japonicum; experiment: Antischistosomal activity against juvenile Schistosoma japonicum assessed as worm survival at 5 uM after 48 hrs relative to control
[10] = test system: Schistosoma japonicum; experiment: Antischistosomal activity against juvenile Schistosoma japonicum assessed as worm survival at 50 uM after 72 hrs relative to control
[11] = test system: Schistosoma japonicum; experiment: Antischistosomal activity against juvenile Schistosoma japonicum assessed as worm survival at 10 uM after 24 hrs relative to control
[12] = test system: Schistosoma japonicum; experiment: Antischistosomal activity against adult Schistosoma japonicum assessed as worm survival at 5 uM after 72 hrs relative to control
[13] = test system: Schistosoma japonicum; experiment: Antischistosomal activity against juvenile Schistosoma japonicum assessed as worm survival at 15 uM after 48 hrs relative to control
[14] = test system: Schistosoma japonicum; experiment: Antischistosomal activity against juvenile Schistosoma japonicum assessed as worm survival at 50 uM after 48 hrs relative to control
[15] = test system: Schistosoma japonicum; experiment: Antischistosomal activity against adult Schistosoma japonicum assessed as worm survival at 10 uM after 24 hrs relative to control
[16] = test system: Schistosoma japonicum; experiment: Antischistosomal activity against juvenile Schistosoma japonicum assessed as worm survival at 10 uM after 72 hrs relative to control
[17] = test system: Schistosoma japonicum; experiment: Antischistosomal activity against juvenile Schistosoma japonicum assessed as worm survival at 5 uM after 24 hrs relative to control
[18] = test system: Schistosoma japonicum; experiment: Antischistosomal activity against juvenile Schistosoma japonicum assessed as worm survival at 10 uM after 48 hrs relative to control
[19] = test system: Schistosoma japonicum; experiment: Antischistosomal activity against adult Schistosoma japonicum assessed as worm survival at 50 uM after 48 hrs relative to control
[20] = test system: Schistosoma japonicum; experiment: Antischistosomal activity against juvenile Schistosoma japonicum assessed as worm survival at 15 uM after 24 hrs relative to control
[21] = test system: Schistosoma japonicum; experiment: Antischistosomal activity against adult Schistosoma japonicum assessed as worm survival at 25 uM after 24 hrs relative to control
[22] = test system: Schistosoma japonicum; experiment: Antischistosomal activity against adult Schistosoma japonicum assessed as worm survival at 50 uM after 24 hrs relative to control
[23] = test system: Schistosoma japonicum; experiment: Antischistosomal activity against adult Schistosoma japonicum assessed as worm survival at 50 uM after 72 hrs relative to control
[24] = test system: Schistosoma japonicum; experiment: Antischistosomal activity against adult Schistosoma japonicum assessed as worm survival at 5 uM after 48 hrs relative to control
[25] = test system: Schistosoma japonicum; experiment: Antischistosomal activity against adult Schistosoma japonicum assessed as worm survival at 10 uM after 72 hrs relative to control
[26] = test system: Schistosoma japonicum; experiment: Antischistosomal activity against adult Schistosoma japonicum assessed as worm survival at 10 uM after 48 hrs relative to control
[27] = test system: Schistosoma japonicum; experiment: Antischistosomal activity against adult Schistosoma japonicum assessed as worm survival at 20 uM after 72 hrs relative to control
[28] = test system: Schistosoma japonicum; experiment: Antischistosomal activity against juvenile Schistosoma japonicum assessed as worm survival at 25 uM after 72 hrs relative to control
[29] = test system: Schistosoma japonicum; experiment: Antischistosomal activity against juvenile Schistosoma japonicum assessed as worm survival at 25 uM after 48 hrs relative to control
[30] = test system: Schistosoma japonicum; experiment: Antischistosomal activity against adult Schistosoma japonicum assessed as worm survival at 20 uM after 48 hrs relative to control
[31] = test system: Schistosoma japonicum; experiment: Antischistosomal activity against juvenile Schistosoma japonicum assessed as worm survival at 20 uM after 48 hrs relative to control
[32] = test system: Schistosoma japonicum; experiment: Antischistosomal activity against juvenile Schistosoma japonicum assessed as worm survival at 20 uM after 24 hrs relative to control
[33] = test system: Schistosoma japonicum; experiment: Antischistosomal activity against adult Schistosoma japonicum assessed as worm survival at 20 uM after 24 hrs relative to control
[34] = test system: Schistosoma japonicum; experiment: Antischistosomal activity against juvenile Schistosoma japonicum assessed as worm survival at 25 uM after 24 hrs relative to control
[35] = test system: Schistosoma japonicum; experiment: Antischistosomal activity against adult Schistosoma japonicum assessed as worm survival at 15 uM after 24 hrs relative to control
[36] = test system: Schistosoma japonicum; experiment: Antischistosomal activity against adult Schistosoma japonicum assessed as worm survival at 15 uM after 48 hrs relative to control
[37] = test system: Schistosoma japonicum; experiment: Antischistosomal activity against juvenile Schistosoma japonicum assessed as worm survival at 20 uM after 72 hrs relative to control
[38] = test system: Schistosoma japonicum; experiment: Antischistosomal activity against adult Schistosoma japonicum assessed as worm survival at 15 uM after 72 hrs relative to control

Question: Which survival at 5 µM [1] does the source give for `O=C(C1CCCCC1)N1CC(=O)N2CCc3ccc(O)cc3C2C1` (configuration not stated) here?
Answer: 27.3%

Question: What about the survival at 15 µM [2] of the same compound?
Answer: 0%

Question: What about the survival at 25 µM [3] of the same compound?
Answer: 0%

Question: And the Activity [4]?
Answer: 40.2%

Question: And the survival at 25 µM [5]?
Answer: 0%

Question: What about the survival at 5 µM [6] of the same compound?
Answer: 60%

Question: And the survival at 50 µM [7]?
Answer: 0%

Question: What about the Activity [8] of the same compound?
Answer: 16.1%

Question: What about the survival at 5 µM [9] of the same compound?
Answer: 27.3%

Question: What about the survival at 50 µM [10] of the same compound?
Answer: 0%

Question: What about the survival at 10 µM [11] of the same compound?
Answer: 0%

Question: What about the survival at 5 µM [12] of the same compound?
Answer: 80%

Question: What about the survival at 15 µM [13] of the same compound?
Answer: 0%

Question: And the survival at 50 µM [14]?
Answer: 0%

Question: What about the survival at 10 µM [15] of the same compound?
Answer: 0%

Question: What about the survival at 10 µM [16] of the same compound?
Answer: 54.5%

Question: And the survival at 5 µM [17]?
Answer: 0%

Question: What about the survival at 10 µM [18] of the same compound?
Answer: 45.5%

Question: And the survival at 50 µM [19]?
Answer: 0%

Question: What about the survival at 15 µM [20] of the same compound?
Answer: 0%

Question: What about the survival at 25 µM [21] of the same compound?
Answer: 0%

Question: And the survival at 50 µM [22]?
Answer: 0%

Question: What about the survival at 50 µM [23] of the same compound?
Answer: 0%

Question: And the survival at 5 µM [24]?
Answer: 80%

Question: And the survival at 10 µM [25]?
Answer: 20%

Question: And the survival at 10 µM [26]?
Answer: 20%

Question: Which results are given for `C[C@H]1[C@@H](OC(=O)CCC(=O)Nc2ccc3c(c2)C2CN(C(=O)C4CCCCC4)CC(=O)N2CC3)O[C@@H]2O[C@@]3(C)CC[C@H]4[C@H](C)CC[C@@H]1[C@@]24OO3` (some centres not stated)?
Answer: survival at 5 µM [1]: 9.1%; survival at 25 µM [3]: 0%; Activity [4]: 41.8%; survival at 25 µM [5]: 0%; survival at 50 µM [7]: 0%; Activity [8]: 3.8%; survival at 20 µM [27]: 0%; survival at 5 µM [9]: 9.1%; survival at 50 µM [10]: 0%; survival at 25 µM [28]: 0%; survival at 25 µM [29]: 0%; survival at 10 µM [11]: 9.1%; survival at 50 µM [14]: 0%; survival at 20 µM [30]: 0%; survival at 10 µM [15]: 100%; survival at 10 µM [16]: 54.5%; survival at 20 µM [31]: 0%; survival at 20 µM [32]: 11.1%; survival at 5 µM [17]: 9.1%; survival at 10 µM [18]: 45.5%; survival at 50 µM [19]: 0%; survival at 25 µM [21]: 0%; survival at 20 µM [33]: 0%; survival at 50 µM [22]: 0%; survival at 25 µM [34]: 0%; survival at 50 µM [23]: 0%; survival at 15 µM [35]: 0%; survival at 15 µM [36]: 60%; survival at 20 µM [37]: 0%; survival at 10 µM [25]: 100%; survival at 10 µM [26]: 100%; survival at 15 µM [38]: 40%

Question: How did the survival at 15 µM [2] turn out when `C[C@H]1[C@@H](OC(=O)CCC(=O)Oc2ccc3c(c2)C2CN(C(=O)C4CCCCC4)CC(=O)N2CC3)O[C@@H]2O[C@@]3(C)CC[C@H]4[C@H](C)CC[C@@H]1[C@@]24OO3` (some centres not stated) was run?
Answer: 0%

Question: What about the survival at 25 µM [3] of the same compound?
Answer: 0%

Question: What about the Activity [4] of the same compound?
Answer: 56.2%

Question: What about the survival at 25 µM [5] of the same compound?
Answer: 0%

Question: And the survival at 50 µM [7]?
Answer: 0%

Question: And the Activity [8]?
Answer: 70.3%

Question: And the survival at 20 µM [27]?
Answer: 0%

Question: And the survival at 50 µM [10]?
Answer: 0%

Question: And the survival at 10 µM [11]?
Answer: 16.7%

Question: What about the survival at 15 µM [13] of the same compound?
Answer: 0%

Question: And the survival at 50 µM [14]?
Answer: 0%

Question: And the survival at 20 µM [30]?
Answer: 0%

Question: And the survival at 10 µM [16]?
Answer: 33.3%

Question: And the survival at 10 µM [18]?
Answer: 33.3%

Question: And the survival at 50 µM [19]?
Answer: 0%

Question: And the survival at 15 µM [20]?
Answer: 0%

Question: And the survival at 25 µM [21]?
Answer: 0%

Question: And the survival at 20 µM [33]?
Answer: 0%

Question: And the survival at 50 µM [22]?
Answer: 0%

Question: And the survival at 50 µM [23]?
Answer: 0%

Question: What about the survival at 15 µM [35] of the same compound?
Answer: 0%

Question: What about the survival at 15 µM [36] of the same compound?
Answer: 0%

Question: And the survival at 15 µM [38]?
Answer: 0%

Question: For `C[C@H]1[C@@H](CC(=O)Nc2ccc3c(c2)C2CN(C(=O)C4CCCCC4)CC(=O)N2CC3)O[C@@H]2O[C@@]3(C)CC[C@H]4[C@H](C)CC[C@@H]1[C@@]24OO3` (some centres not stated), which survival at 50 µM [19] is on record?
Answer: 80%

Question: And the survival at 50 µM [22]?
Answer: 20%

Question: What about the survival at 50 µM [23] of the same compound?
Answer: 100%

Question: What does the source list for `C[C@H]1[C@@H](CC(=O)Oc2ccc3c(c2)C2CN(C(=O)C4CCCCC4)CC(=O)N2CC3)O[C@@H]2O[C@@]3(C)CC[C@H]4[C@H](C)CC[C@@H]1[C@@]24OO3` (some centres not stated)?
Answer: survival at 15 µM [2]: 28.6%; survival at 25 µM [3]: 0%; Activity [4]: 49.6%; survival at 25 µM [5]: 40%; survival at 5 µM [6]: 0%; survival at 50 µM [7]: 14.3%; Activity [8]: 20.5%; survival at 50 µM [10]: 0%; survival at 25 µM [28]: 0%; survival at 25 µM [29]: 25%; survival at 5 µM [12]: 20%; survival at 15 µM [13]: 28.6%; survival at 50 µM [14]: 0%; survival at 10 µM [15]: 100%; survival at 50 µM [19]: 0%; survival at 15 µM [20]: 28.6%; survival at 25 µM [21]: 0%; survival at 50 µM [22]: 0%; survival at 25 µM [34]: 28.6%; survival at 50 µM [23]: 0%; survival at 5 µM [24]: 40%; survival at 10 µM [25]: 0%; survival at 10 µM [26]: 80%
